The source of these data is US20260306460A1, “COMPOSITION FOR REMOVING AND INHIBITING SENESCENT CELLS, AND USES THEREOF” (LIFECEUTIX CO., LTD., priority 2023, published 2026).

One experiment deals with naturally aged mice. Put plainly: p16, MMP3, IL6 mRNA in liver of naturally aged mice (qRT-PCR), Example 15. It is filed as in vivo, mouse. The conditions noted are these: untreated aged = 100%, 5 days; for p16 mRNA: LX-405 10 mg/kg ip, LX-801 100 mg/kg ip, LX-1102 100 mg/kg po, LX-1801 50 mg/kg ip, LX-2101 10 mg/kg ip, LX-3403 100 μg ip; for IL6 mRNA / MMP3 mRNA: doses as p16 mRNA. The method, then:
In the same manner as in Example 7-1 of WO2023-085787 A1, naturally aged mice were administered LX-405 (5% DMSO in PBS solution, 10 mg/kg, intraperitoneal administration), LX-801 (PBS, 100 mg/kg, intraperitoneal administration), LX-1102 (0.5% CMC-Na solution, 100 mg/kg, oral administration), LX-1801 (PBS, 50 mg/kg, intraperitoneal administration), LX-2101 (0.5% CMC-Na solution, 10 mg/kg, intraperitoneal administration), and LX-3403 (mouse anti-PD-1 antibody (BioXcell), 100 μg, intraperitoneal administration) for 5 days under the following conditions. The control group was administered only the solution in the same volume. After drug administration was completed, the method described in each Example below was performed. The mouse was sacrificed in the same manner as Example 7-2 and 7-6 of WO2023-085787 A1. Total RNA was extracted from liver tissue, and qRT-PCR was performed and analyzed using synthesized cDNA. […] The mRNA amounts of p16, MMP3, and IL6 after natural aging were induced were calculated as 100% and compared them with the mRNA amounts of p16, MMP3, and IL6 after treatment with the test compound. Furthermore, an open field test was performed to analyze aging-related frailty in mice using the same method as Example 7-7 of WO2023-085787 A1. […] The amount of activity evaluated after inducing aging was calculated as 100% and compared it with the amount of activity evaluated after treatment with the test compound.
For orientation: Real-time PCR tracks product formation cycle by cycle.

For experiment [1], the system named is naturally aged C57BL6J mice. Kind of experiment: Cardiac aging (cardiomyocyte size, Sur2a mRNA) in naturally aged mice, Example 21-13, Table 28. It is filed as in vivo, mouse. The conditions noted are these: heart; for Cardiomyocyte cross-sectional area (μm2): untreated aged 372 (±9); for Sur2a mRNA (fold): untreated aged = 1. Here is the method:
22-month-old female C57BL6J mice (KRIBB Laboratory Animal Resource Center) were acclimated to the experimental environment for one week, after which the aged mice were randomly assigned to experimental and control groups. Eight-week-old, non-aged mice served as controls. LX-403 was mixed in a 10% ethanol solution of PEG400 and administered orally at a concentration of 25 mg/kg daily for 21 days, or administered to the skin, joints, or eyes at a concentration of 1 μM. LX-1801 was mixed in distilled water with 4% DMSO, 30% PEG300, and 5% Tween80 and administered to the skin, joints, or eyes at a concentration of 0.4 μM daily for 21 days. LX-2001 was mixed in PBS and administered to the skin, joints, or eyes at a concentration of […] daily for 21 days. LX-2002 was mixed in distilled water with 4% DMSO, 30% PEG300, and 5% Tween80 and administered to the skin, joints, or eyes at a concentration of 2 μM daily for 21 days. […] LX-2005 was mixed in distilled water with 4% DMSO, 30% PEG300, and 5% Tween80 and administered to the skin, joints, or eyes at a concentration of 90 μM daily for 21 days. LX-2007 was mixed in distilled water with 4% DMSO, 30% PEG300, and 5% Tween80 and administered to the skin, joints, or eyes at a concentration of 90 μM daily for 21 days. […] LX-3002 was mixed in distilled water with 4% DMSO, 30% PEG300, and 5% Tween80 and administered orally at a concentration of 10 mg/kg daily for 21 days. […] LX-5411 was mixed in 5% PBS and administered orally at a concentration of 10 mg/kg daily for 21 days or administered to the skin, joints, or eyes at a concentration of 3 μM. LX-5701 was mixed in PBS and administered orally at a concentration of 360 mg/kg daily for 21 days. LX-6807 was mixed in saline and administered intraperitoneally at a concentration of 1 mg/kg daily for 21 days. LX-2101 or LX-2102 was mixed in PBS solution with 5% DMSO and administered intraperitoneally at a concentration of 20 mg/kg or 10 mg/kg, respectively, daily for 21 days. The control group received only the solution in the same volume. After the end of drug administration, the methods described in each example below were performed.
At the histological level, cardiac aging is characterized by the loss of ventricular cardiomyocytes due to a decreased ability to replace apoptotic or necrotic cardiomyocytes, leading to hypertrophy of the remaining cardiomyocytes. To assess age-related cardiac hypertrophy, frozen cardiac tissue sections were stained with hematoxylin/eosin (H/E) and the thickness of ventricular cardiomyocytes was observed under an optical microscope.
Furthermore, cardiac aging is characterized by decreased stress tolerance, which is known to be due to decreased expression of ATP-sensitive potassium (KATP) channels. RNA was extracted from heart tissue as described in Example 7-2 of WO2023-085787 A1, and qRT-PCR was performed on Sur2a, a regulatory subunit of the KATP channel, using the synthesized cDNA.

`CC1(C)CC[C@]2(NC(=O)C(C)(F)F)CC[C@]3(C)[C@H](C(=O)C=C4[C@@]5(C)C=C(C#N)C(=O)C(C)(C)[C@@H]5CC[C@]43C)[C@@H]2C1` [LX-2101, Omaveloxolone]: in the experiment on naturally aged mice, the “p16 mRNA” value is 62.5 (±13.1) %, the “IL6 mRNA” value is recorded as 64.1 (±8.8) % and the “MMP3 mRNA” value was 53.6 (±14.3) %.

Turning to `CCCC\C=C/C=C/C=C\CCCCCCCC(=O)O` [LX-2707, Punicic acid], the “Cardiomyocyte cross-sectional area (μm2)” value in experiment [1] was 331 (±15.7) μm2.

On to `C[C@@H]1CC[C@@]23C[C@H](O)C(=O)[C@@]2(O)[C@]1(C)[C@H](OC(=O)CCl)C[C@@H](C1=CCn2c(=O)n(-c4ccccc4)c(=O)n2C1)[C@@H]3C` [LX-1801, (2S,3aS,4S,5R,7R,8S,8aS,11R)-7-(1,3-Dioxo-2-phenyl-2,3,5,8-tetrahydro-1H-[1,2,4]triazolo[1,2-a]pyridazin-6-yl)-2,3a-dihydroxy-4,8,11-trimethyl-3-oxooctahydro-1H-4,8a-propanoazulen-5-yl 2-Chloroacetate], for which, in the experiment on naturally aged mice, the “p16 mRNA” value is 77.4 (±5.2) %, the “IL6 mRNA” value is reported as 56.8 (±19.3) % and the “MMP3 mRNA” value was 47.1 (±15.6) %.

As for `O=C1C2CCN(CC2)C1CNC(=O)C(F)(F)F` (stereo not drawn) [LX-5701], in experiment [1], the “Cardiomyocyte cross-sectional area (μm2)” value is listed as 297 (±20) μm2 and the “Sur2a mRNA (fold)” value is on record as 2.8 (±0.2) fold.

Regarding `S=C(N/N=C1\CCCc2cccnc21)N1CCN(c2ccccn2)CC1` [LX-801], in the experiment on naturally aged mice, the “p16 mRNA” value was 69.4 (±6.9) %, the “IL6 mRNA” value was 71.1 (±1.8) % and the “MMP3 mRNA” value is 76.5 (±4.2) %.

Take Tocofersolan [LX-3001]: the “Cardiomyocyte cross-sectional area (μm2)” value in experiment [1] is 345 (±27.6) μm2.

For `COC(=O)c1ccc([C@H]2c3[nH]c4ccccc4c3C[C@H](C(=O)OC)N2C(=O)CCl)cc1` [LX-405], in the experiment on naturally aged mice, the “p16 mRNA” value is 76.9 (±6.8) %, the “IL6 mRNA” value is 73.6 (±7.4) % and the “MMP3 mRNA” value is 64.7 (±11.5) %.

As for `Cc1cccc([C@H](C)c2cnc[nH]2)c1C` [LX-6807, Dexmedetomidine], in experiment [1], the “Cardiomyocyte cross-sectional area (μm2)” value is reported as 281 (±47.1) μm2 and the “Sur2a mRNA (fold)” value was 3.0 (±0.2) fold.
